Experimental data: patent US20250197389A1, “NITROGEN-CONTAINING HETEROCYCLIC COMPOUND” (SHANGHAI SHIJIANG BIOTECHNOLOGY CO., LTD, priority 2022, published 2025)

Columns and labels:
Type in all cases: cell-based, human
[1] = test system: mPTP-active Daoy cell; test: Inhibitory effect on mPTP-active Daoy cell (Promega CellTiter-Glo, intracellular ATP); details: Daoy cell transfected with empty virus vector without PPIF shRNA
[2] = test system: mPTP-inactive Daoy cell; test: Inhibitory effect on mPTP-inactive Daoy cell (PPIF shRNA; Promega CellTiter-Glo, intracellular ATP); details: Daoy cell transfected with virus vector carrying PPIF shRNA
Text: The activity of mitochondria permeability transition pore (mPTP) was regulated by the PPIF protein. […] PPIF protein activity was restricted by the expression level of PPIF protein in cell.

[3] = test system: mitochondria permeability transition pore; test: Mitochondria membrane potential (TMRM) in Daoy cell transfected with virus vector carrying PPIF shRNA; details: H2O2 +, CsA −; untreated = 100
Text: (§1) For cells with active mitochondria permeability transition pore, adding peroxide (such as H2O2) could increase the activity of mitochondria permeability transition pore, resulting in a decrease in mitochondria membrane potential.

[4] = test system: mitochondria permeability transition pore; test: Mitochondria membrane potential (TMRM) in Daoy cell, mPTP activity; details: H2O2 +, CsA −; untreated = 100
Text: as §1

[5] = test system: mitochondria permeability transition pore; test: Mitochondria membrane potential (TMRM) in Daoy cell transfected with empty virus vector; details: H2O2 +, CsA −; untreated = 100
Text: as §1

| SMILES | IC50 ([1]; Homo sapiens, Daoy) [µM] | IC50 ([2]; Homo sapiens, Daoy) [µM] | other results |
| --- | --- | --- | --- |
| COc1ccc2c(c1Br)CN1CCc3cc4c(cc3C1=C2)OCO4 [AB36460] | 2.71 | 1.27 |  |
| COc1ccc2c(c1OC)CN1CCc3cc4c(cc3C1=C2)OCO4 [AB36463] | 1.95 | 0.88 |  |
| COc1ccc2c(c1OC)C(c1ccccc1)N1CCc3cc4c(cc3C1=C2)OCO4 (centres unmarked) [AB36467] | 12.1 | 4.63 |  |
| COc1ccc2c(c1OC)C(CC(C)=O)N1CCc3cc4c(cc3C1=C2)OCO4 (centres unmarked) [AB36472] | 15.8 | 15.9 |  |
| COc1c(OCCCCl)ccc2c1C(C1CCCC1)N1CCc3cc4c(cc3C1=C2)OCO4 (centres unmarked) [AB36474] | 4.26 | 1.39 |  |
| [2H]C1([2H])c2c(ccc(OC)c2OC)C=C2c3cc4c(cc3CCN21)OCO4 [AB36476] |  |  | IC50 [1]: 2.4 µM; IC50 [2]: 1.1 µM |
| [2H]C1c2c(ccc(OC)c2OC)C=C2c3cc4c(cc3CC([2H])([2H])N21)OCO4 (centres unmarked) [AB36477] | 2.54 | 1.32 |  |
| COc1ccc2c(c1OC)C(c1ccncc1)N1CCc3cc4c(cc3C1=C2)OCO4 (centres unmarked) [AB36488] | 27 | 26.9 |  |
| COc1ccc2c(c1N1CCCCCC1)CN1CCc3cc4c(cc3C1=C2)OCO4 [AB36493] | 1.34 | 0.35 |  |
| COc1ccc2cc3n(c(=O)c2c1OC)CCc1cc2c(cc1-3)OCO2 [AB36496] | 86.3 | > 100 |  |
| COc1ccc2c(c1OC)C(C1CCCC1)N1CCc3cc4c(cc3C1C2)OCO4 (centres unmarked) [AB36497] | 67.4 | 69 |  |
| [2H]C([2H])([2H])Oc1c(OC)ccc2c1C(C1CCCC1)N1CCc3cc4c(cc3C1=C2)OCO4 (centres unmarked) [AB36501] | 12.9 | 3.43 |  |
| [2H]C([2H])([2H])Oc1c(OC)ccc2c1C([2H])(C1CCCC1)N1CCc3cc4c(cc3C1=C2)OCO4 (centres unmarked) [AB36509] | 2.12 | 0.45 |  |
| COc1ccc2c(c1OC)C(=C(Cl)Cl)N1CCc3cc4c(cc3C1=C2)OCO4 [AB36512] | 6.42 | 7.09 |  |
| COc1ccc2c(c1OC)C(n1cccc1)N1CCc3cc4c(cc3C1=C2)OCO4 (centres unmarked) [AB36520] | 16.1 | 16 |  |
| COc1ccc2c(c1OC)C(C1CCCCC1=O)N1CCc3cc4c(cc3C1=C2)OCO4 (centres unmarked) [AB36525] | 1.5 | 1.65 |  |
| OO [Compound H2O2, H2O2] |  |  | Relative TMRM signal intensity (%) in the Daoy cell transfected with virus vector carrying PPIF shRNA, mean value [3]: 95%; Relative TMRM signal intensity (%) in Daoy cell, mean value [4]: 82%; Relative TMRM signal intensity (%) in the Daoy cell transfected with empty virus vector, mean value [5]: 79% |
